pIC50: −log10 of the molar value.
System: 843126-344-R-J1-PDC complex spheroid viability
Assay: Anticancer human tumor 843126-344-R-J1-PDC patient-derived melanoma cell line growth inhibition [POLQ]
Conditions: curve of first compound; second compound 10 µM
Outline: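 PDC + HUVEC + MSC complex spheroids; POLQ inhibitors ± partner drugs; top conc. at/near clinical Cmax, else 10 microM (SN-38 1 microM), half-log dilutions; 37 degrees C, 5% CO2.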
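Throughout, for viability, T/C: spheroids exposed to drugs for seven days before readout.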

Compound | pIC50
CC(C)n1c(=O)n(C)c2cnc3cc(F)c(-c4ccc(OCCCN5CCCCC5)nc4)cc3c21 + Nc1ccc(C#CCN(C(=O)Cc2ncc(C(F)(F)F)cc2C(F)(F)F)c2ccc(F)cc2)nn1 | < 5.00
CC1COCCN1c1cc(-c2ccnn2C)c2ccnc(-c3ccn[nH]3)c2n1 (configuration not stated) + Nc1ccc(C#CCN(C(=O)Cc2ncc(C(F)(F)F)cc2C(F)(F)F)c2ccc(F)cc2)nn1 | 6.29
CC1COCCN1c1cc(C2(S(C)(=N)=O)CC2)nc(-c2ccnc3[nH]ccc23)n1 (configuration not stated) + Nc1ccc(C#CCN(C(=O)Cc2ncc(C(F)(F)F)cc2C(F)(F)F)c2ccc(F)cc2)nn1 | < 5.00
COc1ccc([C@@H](O)c2cc(-c3ncnc4cc(N5CCOCC5)ccc34)c(F)cc2Cl)nn1 + Nc1ccc(C#CCN(C(=O)Cc2ncc(C(F)(F)F)cc2C(F)(F)F)c2ccc(F)cc2)nn1 | < 5.00
Cn1ncnc1[C@H]1c2n[nH]c(=O)c3cc(F)cc(c23)N[C@@H]1c1ccc(F)cc1 + Nc1ccc(C#CCN(C(=O)Cc2ncc(C(F)(F)F)cc2C(F)(F)F)c2ccc(F)cc2)nn1 | < 7.00

Same assay, conditions: second compound 0.0316 µM; first compound 0.000316 µM; stronger effect = lower value

Compound | viability, T/C [%]
Cn1ncnc1[C@H]1c2n[nH]c(=O)c3cc(F)cc(c23)N[C@@H]1c1ccc(F)cc1 + Nc1ccc(C#CCN(C(=O)Cc2ncc(C(F)(F)F)cc2C(F)(F)F)c2ccc(F)cc2)nn1 | 87.1

Same assay, conditions: second compound 0.0316 µM; first compound 0.001 µM; stronger effect = lower value

Compound | viability, T/C [%]
Cn1ncnc1[C@H]1c2n[nH]c(=O)c3cc(F)cc(c23)N[C@@H]1c1ccc(F)cc1 + Nc1ccc(C#CCN(C(=O)Cc2ncc(C(F)(F)F)cc2C(F)(F)F)c2ccc(F)cc2)nn1 | 93.9

Same assay, conditions: second compound 0.0316 µM; first compound 0.00316 µM; stronger effect = lower value

Compound | viability, T/C [%]
Cn1ncnc1[C@H]1c2n[nH]c(=O)c3cc(F)cc(c23)N[C@@H]1c1ccc(F)cc1 + Nc1ccc(C#CCN(C(=O)Cc2ncc(C(F)(F)F)cc2C(F)(F)F)c2ccc(F)cc2)nn1 | 101

Same assay, conditions: second compound 0.0316 µM; first compound 0.01 µM; stronger effect = lower value

Compound | viability, T/C [%]
Cn1ncnc1[C@H]1c2n[nH]c(=O)c3cc(F)cc(c23)N[C@@H]1c1ccc(F)cc1 + Nc1ccc(C#CCN(C(=O)Cc2ncc(C(F)(F)F)cc2C(F)(F)F)c2ccc(F)cc2)nn1 | 93.4

Same assay, conditions: second compound 0.0316 µM; first compound 0.0316 µM; stronger effect = lower value

Compound | viability, T/C [%]
C=CC(=O)N1CCN(c2nc(=O)n(-c3c(C)ccnc3C(C)C)c3nc(-c4c(O)cccc4F)c(F)cc23)C(C)C1 (configuration not stated) + Nc1ccc(C#CCN(C(=O)Cc2ncc(C(F)(F)F)cc2C(F)(F)F)c2ccc(F)cc2)nn1 | 105
CC(C)n1c(=O)n(C)c2cnc3cc(F)c(-c4ccc(OCCCN5CCCCC5)nc4)cc3c21 + Nc1ccc(C#CCN(C(=O)Cc2ncc(C(F)(F)F)cc2C(F)(F)F)c2ccc(F)cc2)nn1 | 91.9
CC1COCCN1c1cc(-c2ccnn2C)c2ccnc(-c3ccn[nH]3)c2n1 (configuration not stated) + Nc1ccc(C#CCN(C(=O)Cc2ncc(C(F)(F)F)cc2C(F)(F)F)c2ccc(F)cc2)nn1 | 89.6
CC1COCCN1c1cc(C2(S(C)(=N)=O)CC2)nc(-c2ccnc3[nH]ccc23)n1 (configuration not stated) + Nc1ccc(C#CCN(C(=O)Cc2ncc(C(F)(F)F)cc2C(F)(F)F)c2ccc(F)cc2)nn1 | 101
COc1ccc([C@@H](O)c2cc(-c3ncnc4cc(N5CCOCC5)ccc34)c(F)cc2Cl)nn1 + Nc1ccc(C#CCN(C(=O)Cc2ncc(C(F)(F)F)cc2C(F)(F)F)c2ccc(F)cc2)nn1 | 95.5
Cn1ncnc1[C@H]1c2n[nH]c(=O)c3cc(F)cc(c23)N[C@@H]1c1ccc(F)cc1 + Nc1ccc(C#CCN(C(=O)Cc2ncc(C(F)(F)F)cc2C(F)(F)F)c2ccc(F)cc2)nn1 | 96.1

Same assay, conditions: second compound 0.0316 µM; first compound 0.1 µM; stronger effect = lower value

Compound | viability, T/C [%]
C=CC(=O)N1CCN(c2nc(=O)n(-c3c(C)ccnc3C(C)C)c3nc(-c4c(O)cccc4F)c(F)cc23)C(C)C1 (configuration not stated) + Nc1ccc(C#CCN(C(=O)Cc2ncc(C(F)(F)F)cc2C(F)(F)F)c2ccc(F)cc2)nn1 | 82.8
CC(C)n1c(=O)n(C)c2cnc3cc(F)c(-c4ccc(OCCCN5CCCCC5)nc4)cc3c21 + Nc1ccc(C#CCN(C(=O)Cc2ncc(C(F)(F)F)cc2C(F)(F)F)c2ccc(F)cc2)nn1 | 74
CC1COCCN1c1cc(-c2ccnn2C)c2ccnc(-c3ccn[nH]3)c2n1 (configuration not stated) + Nc1ccc(C#CCN(C(=O)Cc2ncc(C(F)(F)F)cc2C(F)(F)F)c2ccc(F)cc2)nn1 | 76.3
CC1COCCN1c1cc(C2(S(C)(=N)=O)CC2)nc(-c2ccnc3[nH]ccc23)n1 (configuration not stated) + Nc1ccc(C#CCN(C(=O)Cc2ncc(C(F)(F)F)cc2C(F)(F)F)c2ccc(F)cc2)nn1 | 84.8
COc1ccc([C@@H](O)c2cc(-c3ncnc4cc(N5CCOCC5)ccc34)c(F)cc2Cl)nn1 + Nc1ccc(C#CCN(C(=O)Cc2ncc(C(F)(F)F)cc2C(F)(F)F)c2ccc(F)cc2)nn1 | 94.9
Cn1ncnc1[C@H]1c2n[nH]c(=O)c3cc(F)cc(c23)N[C@@H]1c1ccc(F)cc1 + Nc1ccc(C#CCN(C(=O)Cc2ncc(C(F)(F)F)cc2C(F)(F)F)c2ccc(F)cc2)nn1 | 82.6

Same assay, conditions: second compound 0.0316 µM; first compound 0.316 µM; stronger effect = lower value

Compound | viability, T/C [%]
C=CC(=O)N1CCN(c2nc(=O)n(-c3c(C)ccnc3C(C)C)c3nc(-c4c(O)cccc4F)c(F)cc23)C(C)C1 (configuration not stated) + Nc1ccc(C#CCN(C(=O)Cc2ncc(C(F)(F)F)cc2C(F)(F)F)c2ccc(F)cc2)nn1 | 97.3
CC(C)n1c(=O)n(C)c2cnc3cc(F)c(-c4ccc(OCCCN5CCCCC5)nc4)cc3c21 + Nc1ccc(C#CCN(C(=O)Cc2ncc(C(F)(F)F)cc2C(F)(F)F)c2ccc(F)cc2)nn1 | 86.2
CC1COCCN1c1cc(-c2ccnn2C)c2ccnc(-c3ccn[nH]3)c2n1 (configuration not stated) + Nc1ccc(C#CCN(C(=O)Cc2ncc(C(F)(F)F)cc2C(F)(F)F)c2ccc(F)cc2)nn1 | 65.3
CC1COCCN1c1cc(C2(S(C)(=N)=O)CC2)nc(-c2ccnc3[nH]ccc23)n1 (configuration not stated) + Nc1ccc(C#CCN(C(=O)Cc2ncc(C(F)(F)F)cc2C(F)(F)F)c2ccc(F)cc2)nn1 | 86.6
COc1ccc([C@@H](O)c2cc(-c3ncnc4cc(N5CCOCC5)ccc34)c(F)cc2Cl)nn1 + Nc1ccc(C#CCN(C(=O)Cc2ncc(C(F)(F)F)cc2C(F)(F)F)c2ccc(F)cc2)nn1 | 87.5

Same assay, conditions: second compound 0.0316 µM; first compound 1 µM; stronger effect = lower value

Compound | viability, T/C [%]
C=CC(=O)N1CCN(c2nc(=O)n(-c3c(C)ccnc3C(C)C)c3nc(-c4c(O)cccc4F)c(F)cc23)C(C)C1 (configuration not stated) + Nc1ccc(C#CCN(C(=O)Cc2ncc(C(F)(F)F)cc2C(F)(F)F)c2ccc(F)cc2)nn1 | 102
CC(C)n1c(=O)n(C)c2cnc3cc(F)c(-c4ccc(OCCCN5CCCCC5)nc4)cc3c21 + Nc1ccc(C#CCN(C(=O)Cc2ncc(C(F)(F)F)cc2C(F)(F)F)c2ccc(F)cc2)nn1 | 92.6
CC1COCCN1c1cc(-c2ccnn2C)c2ccnc(-c3ccn[nH]3)c2n1 (configuration not stated) + Nc1ccc(C#CCN(C(=O)Cc2ncc(C(F)(F)F)cc2C(F)(F)F)c2ccc(F)cc2)nn1 | 48.7
CC1COCCN1c1cc(C2(S(C)(=N)=O)CC2)nc(-c2ccnc3[nH]ccc23)n1 (configuration not stated) + Nc1ccc(C#CCN(C(=O)Cc2ncc(C(F)(F)F)cc2C(F)(F)F)c2ccc(F)cc2)nn1 | 76.9
COc1ccc([C@@H](O)c2cc(-c3ncnc4cc(N5CCOCC5)ccc34)c(F)cc2Cl)nn1 + Nc1ccc(C#CCN(C(=O)Cc2ncc(C(F)(F)F)cc2C(F)(F)F)c2ccc(F)cc2)nn1 | 87.9

Same assay, conditions: second compound 0.0316 µM; first compound 3.16 µM; stronger effect = lower value

Compound | viability, T/C [%]
C=CC(=O)N1CCN(c2nc(=O)n(-c3c(C)ccnc3C(C)C)c3nc(-c4c(O)cccc4F)c(F)cc23)C(C)C1 (configuration not stated) + Nc1ccc(C#CCN(C(=O)Cc2ncc(C(F)(F)F)cc2C(F)(F)F)c2ccc(F)cc2)nn1 | 101

Source: PubChem BioAssay AID1963837 (Molecular Pharmacology Branch, DTP, NCI, 2024)
